From paper PMC4227698, “Poly(Ethylene Glycol) as a Scaffold for High-Affinity Open-Channel Blockers of the Mouse Nicotinic Acetylcholine Receptor” (PLoS ONE, 2014)
Read-outs that look alike come from different tables or passages of the source.

What was measured:
[1] = target: T1, adult mouse muscle AChR (α, β, δ, ε) (Mus musculus, UniProt P02716+P04756+P09690+P20782, V433A); assay: Single-channel patch-clamp analysis of open-channel blockade of AChRs expressed in HEK-293 cells; type: cell-based; settings: for effect on apparent mean open time (τapp): 100 µM ACh with 5, 10 or 20 µM PEG-QA; for unblocking rate constant k–B / blocking rate constant k+B: cell-attached; for unblocking rate constant k–B: average of unblocking rates at all tested concentrations; for blocking rate constant k+B: slope of linear fit of blocking rates
T1 construct: expressed in transfected cells; host or cells: HEK-293 cells (ATCC CRL-1573), transient calcium phosphate transfection, α:β:δ:ε = 2:1:1:1
T1 sequence (P04756 21-457 V433A): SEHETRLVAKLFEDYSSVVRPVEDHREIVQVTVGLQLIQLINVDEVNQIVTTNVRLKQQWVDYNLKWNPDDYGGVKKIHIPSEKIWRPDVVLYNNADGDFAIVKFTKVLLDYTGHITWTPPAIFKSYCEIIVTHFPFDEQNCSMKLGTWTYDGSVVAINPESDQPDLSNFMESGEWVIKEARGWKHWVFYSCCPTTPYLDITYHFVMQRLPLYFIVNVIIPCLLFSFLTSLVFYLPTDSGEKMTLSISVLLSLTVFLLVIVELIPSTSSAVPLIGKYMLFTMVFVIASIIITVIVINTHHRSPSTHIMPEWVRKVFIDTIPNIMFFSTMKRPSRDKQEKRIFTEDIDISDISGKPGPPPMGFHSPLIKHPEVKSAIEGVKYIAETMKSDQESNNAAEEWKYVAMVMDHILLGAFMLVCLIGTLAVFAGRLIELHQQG
T1 sequence (P09690 24-501): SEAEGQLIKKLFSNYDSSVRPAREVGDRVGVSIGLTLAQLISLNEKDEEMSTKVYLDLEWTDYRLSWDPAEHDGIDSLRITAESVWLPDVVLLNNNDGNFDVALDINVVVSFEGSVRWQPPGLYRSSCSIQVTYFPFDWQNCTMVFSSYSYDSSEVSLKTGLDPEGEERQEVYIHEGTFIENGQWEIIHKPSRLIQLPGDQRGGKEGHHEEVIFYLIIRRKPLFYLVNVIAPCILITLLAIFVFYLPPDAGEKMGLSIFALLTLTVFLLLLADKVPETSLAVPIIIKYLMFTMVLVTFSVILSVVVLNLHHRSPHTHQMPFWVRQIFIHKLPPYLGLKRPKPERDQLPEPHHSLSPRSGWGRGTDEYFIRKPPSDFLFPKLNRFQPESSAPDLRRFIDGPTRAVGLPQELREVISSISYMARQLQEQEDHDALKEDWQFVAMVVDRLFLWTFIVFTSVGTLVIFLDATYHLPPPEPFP
T1 sequence (P02716 25-520): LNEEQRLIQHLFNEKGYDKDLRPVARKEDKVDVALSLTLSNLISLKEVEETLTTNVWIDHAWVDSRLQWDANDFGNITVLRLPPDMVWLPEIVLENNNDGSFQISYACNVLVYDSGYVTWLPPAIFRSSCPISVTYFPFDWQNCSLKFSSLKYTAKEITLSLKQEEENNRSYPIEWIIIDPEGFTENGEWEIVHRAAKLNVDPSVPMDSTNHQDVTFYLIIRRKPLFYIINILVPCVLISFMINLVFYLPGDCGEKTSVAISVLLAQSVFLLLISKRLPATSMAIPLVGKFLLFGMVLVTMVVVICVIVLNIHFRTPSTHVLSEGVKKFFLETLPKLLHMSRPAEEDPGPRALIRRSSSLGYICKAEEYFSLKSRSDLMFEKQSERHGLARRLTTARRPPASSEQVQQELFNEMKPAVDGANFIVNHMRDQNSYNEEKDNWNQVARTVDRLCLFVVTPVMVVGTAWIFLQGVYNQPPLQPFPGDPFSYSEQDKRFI
T1 sequence (P20782 21-493): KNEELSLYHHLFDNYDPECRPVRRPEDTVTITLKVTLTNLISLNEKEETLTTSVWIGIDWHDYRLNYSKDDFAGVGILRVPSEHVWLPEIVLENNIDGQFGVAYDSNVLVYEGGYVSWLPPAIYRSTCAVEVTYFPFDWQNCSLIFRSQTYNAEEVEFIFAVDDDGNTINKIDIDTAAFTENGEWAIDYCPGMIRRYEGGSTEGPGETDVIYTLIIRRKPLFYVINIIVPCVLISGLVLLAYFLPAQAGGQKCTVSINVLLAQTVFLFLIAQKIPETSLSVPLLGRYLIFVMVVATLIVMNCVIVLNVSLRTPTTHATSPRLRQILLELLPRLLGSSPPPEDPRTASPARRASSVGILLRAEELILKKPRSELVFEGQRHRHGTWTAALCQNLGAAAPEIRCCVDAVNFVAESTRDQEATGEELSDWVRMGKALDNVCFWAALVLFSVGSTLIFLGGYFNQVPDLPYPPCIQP
Protocol: The cDNA clones of adult mouse muscle AChR subunits (α, β, δ, ε) in the vector pRBG4 were generously provided by Professor Anthony Auerbach (University at Buffalo, NY). […] Human embryonic kidney cells (HEK-293 cells, ATCC CRL-1573) were transiently transfected by calcium phosphate precipitation. In brief, HEK-293 cells were maintained in Dulbecco's […] (Invitrogen) supplemented with 10% Fetal Bovine Serum (Invitrogen) at 37°C and 5% CO2. Cells were plated 24 h before transfection to reach a confluence of 40–60%. A total of 3.5 µg DNA per 35-mm culture dish (α:β:δ:ε = 2∶1∶1∶1) was used. […] The medium was changed 24 h after the addition of DNA, and patch-clamp recordings were carried out 20–36 h thereafter.
Single-channel currents from AChRs were recorded using patch-clamp techniques in the cell-attached configuration. For dose-dependence measurements, a holding potential of +70 mV was applied. Kinetic analysis of single-channel currents was carried out using the QuB suite, [12]. The currents were idealized using the segmented k-means (SKM) hidden Markov algorithm at full bandwidth (10 kHz). Kinetic modeling of the idealized intervals was performed using the maximum interval likelihood (MIL) method, [12]. Additional details of recording and data analysis are provided in File S1.
MIL analysis on 2–4 cells was performed to determine the apparent mean open time (τapp), blocking rate, and unblocking rate for each measuring condition (reported as mean ± SEM). Uncertainties in the blocking rate constant (k+B values in Figure 2F) are reported as the standard errors in the least squares fits.
To test this hypothesis, we characterized the blockade kinetics of a series of PEG-QA conjugates (PQ1–PQ5; Figure 1) using patch-clamp electrophysiology. These conjugates were prepared from a short PEG, octa (ethylene glycol), through a three-step conversion (File S1). The chosen QA groups are small relative to the backbone length, and the hydrodynamic radii of these compounds are therefore expected to be similar. The kinetics and microscopic equilibrium affinity of channel blockade were determined by analyzing the acetylcholine (ACh)-elicited currents at the single-channel level. Channel activities were measured at 100 µM ACh in the absence or presence of 5, 10, or 20 µM of PEG-QA. […] The brief gaps within the clusters represent channel closing events.
Typical open-channel blockers follow a sequential blockade mechanism: the channel opens in response to ACh binding, and the blocker reversibly binds and dissociates from the transmembrane pore before the channel closes (Figure 1 and File S1). […] A new population of non-conducting blockade events, in addition to the brief closing and the long desensitized dwells, is also observed. These blockade events manifest themselves as a new component in the closed-time histogram. The relative area of the blockade component increases with increasing blocker concentration (reflecting the concentration-dependent rate of pore blockade), while the lifetime of this component (τB) is independent of blocker concentration (reflecting the unimolecular nature of blocker dissociation). These kinetic features allow the blocking and unblocking rate constants (k+B and k–B, respectively) to be determined by fitting of the dwell times under each set of conditions (File S1). […]
were amplified (Axopatch 200B, Axon Instruments, Foster City, CA), low-pass filtered at 10 kHz, and digitized at 20 kHz (NI 6040 E Data Acquisition Board, National Instruments, Austin, TX). Data were recorded directly to a desktop PC hard drive using the QuB software (www.qub.buffalo.edu).
1.3. Analysis of single-channel data (see also: Figure S1)
Kinetic analysis of single-channel currents was carried out using the QuB suite. The currents were idealized using the segmented k-means (SKM) hidden Markov algorithm at full bandwidth (10 kHz). Kinetic modeling of the idealized intervals […]

[2] = target: T1, adult mouse muscle AChR (α, β, δ, ε); assay: Agonist potency of PEG-QA alone, single-channel recording; type: cell-based; settings: 10 µM in the pipette solution without other agonists, +70 mV
Excerpt: Various QA compounds, including the prototype PEG-QA (PQ0), have been previously reported as agonists for the muscle-type AChR [8], [19], [26]–[28]. […] The agonist potencies of PEG-QAs correlate roughly inversely with the size of their QA groups (except PQ4; Figure S4). […] The low agonist potencies of PQ3 and PQ5 may be attributable to their bulky QA groups, which may cause reduced affinities for the agonist-binding pocket and/or interfere with receptor conformational changes required for channel gating. Open-channel blockers with low agonist potencies may be favorable in some applications, since their pharmacological effects are simpler and more predictable.
Supplementary file pone.0112088.s004.tif: Figure S4 The agonist potencies of PQ1–5. (A) Representative traces of single-channel recordings in the presence of individual PEG-QA (10 µM in the pipette solution without other agonists). Pipette potential was held at +70 mV, and the currents are shown as upward deflections. (B) The effect of QA structure on the open probability of the AChR (defined as [drawing 1] , where N max is the maximal number of simultaneously open channels and Po,i is the fraction of time in which i channels open simultaneously). Data are plotted in log-scale in order to present the low NPo values of PQ3 and PQ5. (C) The effect of QA structure on the mean open time of the AChR. […]

muscle-type AChR = settings: cited from earlier work; for blocking rate constant k+B / unblocking rate constant k–B: ref Table S1 refs 1-12
[3] = 20 µM blocker, held at +50, +70, +100, +130 mV
[4] = 100 µM ACh, +70 mV, predominant blockade mode
[5] = predominant blockade mode, 100 µM ACh, +70 mV, read-out: Kd (= k–B/k+B) for the open AChR pore
[6] = previously reported open-channel blockers
[7] = previously reported open-channel blockers, ref Table S1 refs 1-14, read-out: Kd (= k–B/k+B)

CCC[N+](C)(CCC)CCOCCOCCOCCOCCOCCOCCOCC[N+](C)(CCC)CCC [PQ5]
voltage dependence of k+B [1, 3]: increases with membrane hyperpolarization
voltage dependence of τapp [1, 3]: decreases with hyperpolarizing
effect on apparent mean open time (τapp) ([1]; +70 mV): dose-dependent decrease
unblocking rate constant k–B [1, 4]: 2 ± 1 s⁻¹
blocking rate constant k+B [1, 4]: 1.5e+07 ± 1e+06 M⁻¹ s⁻¹
Kd [1, 5]: 0.12 ± 0.09 µM
agonist potency (channel open probability and opening duration with compound alone) [2]: poor agonists

C[N+](C)(C)CCOCCOCCOCCOCCOCCOCCOCC[N+](C)(C)C [PQ0]
Kd (muscle-type AChR; prototype PEG-trimethylammonium blockers, read-out: Kd for the AChR pore): 9 ± 2 µM

C[N+]1(CCOCCOCCOCCOCCOCCOCCOCC[N+]2(C)CCCC2)CCCC1 [PQ1]
effect on apparent mean open time (τapp) ([1]; +70 mV): dose-dependent decrease
unblocking rate constant k–B [1, 4]: 64 ± 14 s⁻¹
blocking rate constant k+B [1, 4]: 2e+07 ± 4e+06 M⁻¹ s⁻¹
predominant blockade mode ([1]; faster- vs slower-dissociation mode): faster-dissociation mode
Kd [1, 5]: 3 ± 1 µM

Cc1cccc(C)c1NC(=O)C[N+](C)(C)C [QX-222]
blocking rate constant k+B (muscle-type AChR; [6]): 2.1e+07 M⁻¹ s⁻¹
unblocking rate constant k–B (muscle-type AChR; [6]): ~ 600 s^−1
Kd (muscle-type AChR; [7]): ~30 µM

CNC1(c2ccccc2Cl)CCCCC1=O (stereo not shown) [ketamine]
blocking rate constant k+B (muscle-type AChR; [6]): 3e+06 M⁻¹ s⁻¹
unblocking rate constant k–B (muscle-type AChR; [6]): 100 s⁻¹
Kd (muscle-type AChR; [7]): 33 µM

C[N+](C)(C)CCO [choline]
Kd (muscle-type AChR; [7]): 12500 µM

C[C@]12N[C@H](Cc3ccccc31)c1ccccc12 [MK-801]
blocking rate constant k+B (muscle-type AChR; [6]): 2e+07 M⁻¹ s⁻¹
unblocking rate constant k–B (muscle-type AChR; [6]): 48 s⁻¹
Kd (muscle-type AChR; [7]): 2.4 µM

CNC(=O)Oc1ccc2c(c1)[C@]1(C)CCN(C)[C@@H]1N2C [physostigmine]
blocking rate constant k+B (muscle-type AChR; [6]): 2e+07 M⁻¹ s⁻¹
unblocking rate constant k–B (muscle-type AChR; [6]): 450 s⁻¹
Kd (muscle-type AChR; [7]): 23 µM

C[N+]1(CCOCCOCCOCCOCCOCCOCCOCC[N+]2(C)CCCCC2)CCCCC1 [PQ2]
Kd [1]: 0.08 ± 0.09 µM
effect on apparent mean open time (τapp) ([1]; +70 mV): dose-dependent decrease
unblocking rate constant k–B [1, 4]: 2 ± 2 s⁻¹
blocking rate constant k+B [1, 4]: 2.9e+07 ± 7e+06 M⁻¹ s⁻¹

CC(C)(C)NCC(O)c1ccc(O)c(CO)c1 (stereo not shown) [albuterol]
blocking rate constant k+B (muscle-type AChR; [6]): 4.3e+07 M⁻¹ s⁻¹
unblocking rate constant k–B (muscle-type AChR; [6]): 1042 s⁻¹
Kd (muscle-type AChR; [7]): 24 µM

CC(=O)OCC[N+](C)(C)C [acetylcholine]
blocking rate constant k+B (muscle-type AChR; [6]): 3.7e+07 M⁻¹ s⁻¹
unblocking rate constant k–B (muscle-type AChR; [6]): 56000 s⁻¹
Kd (muscle-type AChR; [7]): 1200 µM

CN1CCCN=C1/C=C/c1cccs1 [pyrantel]
blocking rate constant k+B (muscle-type AChR; [6]): 8e+07 M⁻¹ s⁻¹
unblocking rate constant k–B (muscle-type AChR; [6]): 667 s⁻¹
Kd (muscle-type AChR; [7]): 8 µM

CC[N+](CC)(CC)CC [tetraethylammonium]
Kd (muscle-type AChR; read-out: Kd (= k–B/k+B)): 2700 µM

CCN(CC)CCOC(=O)c1ccc(N)cc1 [procaine]
blocking rate constant k+B (muscle-type AChR; [6]): 2e+06 M⁻¹ s⁻¹
unblocking rate constant k–B (muscle-type AChR; [6]): 200 s⁻¹
Kd (muscle-type AChR; [7]): 100 µM

CC[N+]1(CCOCCOCCOCCOCCOCCOCCOCC[N+]2(CC)CCCCC2)CCCCC1 [PQ3]
effect on apparent mean open time (τapp) ([1]; +70 mV): dose-dependent decrease
unblocking rate constant k–B [1, 4]: 4 ± 2 s⁻¹
blocking rate constant k+B [1, 4]: 2.2e+07 ± 6e+06 M⁻¹ s⁻¹
Kd [1, 5]: 0.17 ± 0.12 µM
agonist potency (channel open probability and opening duration with compound alone) [2]: poor agonists

Nc1nnc(-c2cccc(Cl)c2Cl)c(N)n1 [lamotrigine]
blocking rate constant k+B (muscle-type AChR; [6]): 6.2e+06 M⁻¹ s⁻¹
unblocking rate constant k–B (muscle-type AChR; [6]): 575 s⁻¹
Kd (muscle-type AChR; [7]): 93 µM

CC[N+](CC)(CC)CCOCCOCCOCCOCCOCCOCCOCC[N+](CC)(CC)CC [PQ4]
effect on apparent mean open time (τapp) ([1]; +70 mV): dose-dependent decrease
unblocking rate constant k–B [1, 4]: 4 ± 3 s⁻¹
blocking rate constant k+B [1, 4]: 2.2e+07 M⁻¹ s⁻¹
Kd [1, 5]: 0.19 ± 0.15 µM

CC[N+](CC)(CC)CC(=O)Nc1c(C)cccc1C [QX-314]
blocking rate constant k+B (muscle-type AChR; [6]): 1.9e+07 M⁻¹ s⁻¹
unblocking rate constant k–B (muscle-type AChR; [6]): ~ 30 s^−1
Kd (muscle-type AChR; [7]): ~1 µM

COc1cc2c3cc1Oc1cc(ccc1O)C[C@@H]1c4c(cc(OC)c(O)c4Oc4ccc(cc4)C[C@@H]3N(C)CC2)CC[N+]1(C)C [(+)-tubocurarine]
blocking rate constant k+B (muscle-type AChR; [6]): 3e+06 M⁻¹ s⁻¹
unblocking rate constant k–B (muscle-type AChR; [6]): 0.8 s⁻¹
Kd (muscle-type AChR; [7]): 0.27 µM

Br.C[N+](C)(C)CCCCCNCC12CC3CC(CC(C3)C1)C2.[Br-] [IEM-1460]
blocking rate constant k+B (muscle-type AChR; [6]): 7.2e+07 M⁻¹ s⁻¹
unblocking rate constant k–B (muscle-type AChR; [6]): 858 s⁻¹
Kd (muscle-type AChR; [7]): 12 µM
